# Measured values as given in ChEMBL document CHEMBL4261511, “Synthesis, structure-activity relationship and binding mode analysis of 4-thiazolidinone derivatives as novel inhibitors of human dihydroorotate dehydrogenase” (Medchemcomm, 2017).
# Legend:
# [1] = target: T1, Dihydroorotate dehydrogenase (quinone), mitochondrial (Homo sapiens, UniProt Q02127); test: Inhibition of human DHODH at 10 uM using dihydroorotate substrate by DCIP assay relative to control
# [2] = target: T1, Dihydroorotate dehydrogenase (quinone), mitochondrial; test: Inhibition of human DHODH using dihydroorotate substrate by DCIP assay
# T1 sequence (Q02127 whole entry): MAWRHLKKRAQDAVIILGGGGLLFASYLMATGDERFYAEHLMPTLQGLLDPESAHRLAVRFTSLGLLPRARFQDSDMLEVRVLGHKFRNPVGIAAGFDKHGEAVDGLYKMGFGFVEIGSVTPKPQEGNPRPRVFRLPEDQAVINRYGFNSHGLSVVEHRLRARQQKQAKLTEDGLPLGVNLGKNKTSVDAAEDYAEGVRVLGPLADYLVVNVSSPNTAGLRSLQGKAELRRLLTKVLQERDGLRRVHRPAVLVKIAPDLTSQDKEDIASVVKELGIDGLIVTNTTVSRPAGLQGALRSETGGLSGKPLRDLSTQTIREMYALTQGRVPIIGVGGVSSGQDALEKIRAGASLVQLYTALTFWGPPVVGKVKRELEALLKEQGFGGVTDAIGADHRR
SMILES,inhibition [1],IC50 [2]
CCCCOC(=O)/C(C#N)=C1\SCC(=O)N1c1ccccc1F,28.8%,> 10 µM
COC(=O)/C(C#N)=C1\SCCC(=O)N1c1ccccc1F,15.7%,> 10 µM
COC(=O)/C(C#N)=C1\SCC(=O)N1c1cccc(Cl)n1,43.7%,> 10 µM
COC(=O)/C(C#N)=C1\SCC(=O)N1c1ccc(C(=O)O)cc1,15.1%,> 10 µM
COC(=O)C(C(=O)OC)=C1SCC(=O)N1c1ccccc1F,4.27%,> 10 µM
COC(=O)/C(C#N)=C1\SCC(=O)N1c1ccc(Br)cc1,69%,2.68 µM
CC(C)(C)OC(=O)/C(C#N)=C1\SCC(=O)N1c1ccccc1F,33.9%,> 10 µM
COC(=O)/C(C#N)=C1\SCC(=O)N1c1ccc(OC)cc1F,40.4%,> 10 µM
COC(=O)/C(C#N)=C1\SCC(=O)N1c1ccc([N+](=O)[O-])cc1,62.9%,4.41 µM
COC(=O)/C(C#N)=C1\SCC(=O)N1c1ccccc1Cl,40%,> 10 µM
CCCOC(=O)/C(C#N)=C1\SCC(=O)N1c1ccccc1F,33.5%,> 10 µM
CCOC(=O)C(C(=O)OCC)=C1SCC(=O)N1c1ccccc1F,8.71%,> 10 µM
COC(=O)/C(C#N)=C1\SCC(=O)N1c1cccc(Cl)c1,56.9%,8.51 µM
COC(=O)/C(C#N)=C1\SCC(=O)N1c1cccc(F)c1,34.1%,> 10 µM
N#C/C(C(N)=O)=C1/SCC(=O)N1c1ccccc1F,11.8%,> 10 µM
N#C/C(C(=O)O)=C1/SCC(=O)N1c1ccccc1F,14.9%,> 10 µM
COC(=O)/C(C#N)=C1\SCC(=O)N1c1ccc(C(F)(F)F)cc1,74.4%,3.03 µM
COC(=O)/C(C#N)=C1\SCC(=O)N1c1ccc(C(C)(C)C)cc1,79.1%,–
COC(=O)/C(C#N)=C1\SCC(=O)N1c1ccnc(Cl)c1,45.4%,> 10 µM
O=C1CSC(=S)N1c1ccc(C(F)(F)F)cc1,25.6%,> 10 µM
COC(=O)/C(C#N)=C1\SCC(=O)N1c1ccc(OC)cc1,52.5%,9.45 µM
COC(=O)/C(C#N)=C1\SCC(=O)N1c1ccc2ccccc2c1,80.3%,–
COC(=O)/C(C#N)=C1\SCC(=O)N1c1ccccc1F,34.9%,> 10 µM
COC(=O)/C(C#N)=C1\SCC(=O)N1c1ccccc1I,18.4%,> 10 µM
CCOC(=O)/C(C#N)=C1\SCC(=O)N1c1ccccc1F,38.2%,> 10 µM
COC(=O)/C(C#N)=C1\SCC(=O)N1c1cccc2ccccc12,21.9%,> 10 µM
COC(=O)/C(C#N)=C1\SCCN1c1ccccc1F,11.1%,> 10 µM
COC(=O)/C(C#N)=C1\SCC(=O)N1c1ccc(F)cc1,49.4%,10.6 µM
